Laboratory results from PubChem BioAssay AID743352 (Broad Institute, 2014).
The source made the active and inactive calls. The rule behind the calls is not given here.

Each molecule was assayed on M. tuberculosis BioA-TetON underexpression strain, growth inhibition (assay: antitubercular growth inhibition, bioa underexpression strain, cell based, dry powder, single point (AID 743352)).

Row | Compound | IC90
1 | CC(=O)c1ccc(N2CC3(CN(C(=O)c4ccc5c(c4)OCO5)C3)C2)cc1 | > 50 µM (inactive)
2 | CN1c2ccc(-c3cccc(F)c3)cc2[C@H]2[C@H](CCN2C(=O)CCCCCCN)[C@H]1CO | > 50 µM (inactive)
3 | CNS(=O)(=O)c1ccc(N2CCN(C(=O)c3ccc4c(c3)OCO4)CC2)cc1 | > 50 µM (inactive)
4 | CN1c2ccc(-c3cccc(F)c3)cc2[C@H]2[C@H](CCN2C(=O)Cc2cccnc2)[C@H]1CO | > 50 µM (inactive)
5 | COc1ccc(NC(=O)N2CC[C@@H]3[C@@H](CO)N(C)c4ccc(-c5cccc(F)c5)cc4[C@@H]32)cc1 | > 50 µM (inactive)
6 | CC(C)NC(=O)N1CC[C@@H]2[C@@H](CO)N(C)c3ccc(-c4ccc(F)cc4)cc3[C@@H]21 | > 50 µM (inactive)
7 | COc1ccccc1NC(=O)N1CC[C@@H]2[C@@H](CO)N(C)c3ccc(-c4cccc(F)c4)cc3[C@@H]21 | > 50 µM (inactive)
8 | CN1c2ccc(-c3cccc(F)c3)cc2[C@H]2[C@H](CCN2C(=O)Cc2ccccc2)[C@H]1CO | > 50 µM (inactive)
9 | COC(=O)CCCCCCC(=O)N1CC[C@@H]2[C@@H](CO)N(C)c3ccc(-c4cccc(F)c4)cc3[C@@H]21 | > 50 µM (inactive)
10 | CN1c2ccc(-c3ccc(F)cc3)cc2[C@H]2[C@H](CCN2C(=O)Nc2cc(F)ccc2F)[C@H]1CO | > 50 µM (inactive)
11 | CCCNC(=O)N1CC[C@@H]2[C@@H](CO)N(C)c3ccc(-c4ccc(F)cc4)cc3[C@@H]21 | > 50 µM (inactive)
12 | COc1cccc(NC(=O)N2CC[C@@H]3[C@@H](CO)N(C)c4ccc(-c5cccc(F)c5)cc4[C@@H]32)c1 | > 50 µM (inactive)
13 | CC(=O)c1ccc(NCCNC(=O)c2ccc3c(c2)OCO3)cc1 | > 50 µM (inactive)
14 | COc1ccccc1NC(=O)N1CC[C@@H]2[C@@H](CO)N(C)c3ccc(-c4ccc(F)cc4)cc3[C@@H]21 | > 50 µM (inactive)
15 | CC(=O)c1ccc(N2CCN(C(=O)c3ccccc3F)CC2)cc1 | > 50 µM (inactive)
16 | CN1c2ccc(-c3cccc(F)c3)cc2[C@@H]2[C@@H](CCN2C(=O)c2ccc3c(c2)OCO3)[C@@H]1CO | > 50 µM (inactive)
17 | CN1c2ccc(-c3cccc(F)c3)cc2[C@@H]2[C@@H](CCN2C(=O)c2ccc3c(c2)OCO3)[C@H]1CO | > 50 µM (inactive)

Row | Compound | IC90
18 | COc1ccccc1C(=O)N1CCN(c2ccc(C(C)=O)cc2)CC1 | > 50 µM (inactive)
19 | CN1c2ccc(-c3ccc(F)cc3)cc2[C@H]2[C@H](CCN2C(=O)Nc2ccc(F)cc2)[C@H]1CO | > 50 µM (inactive)
20 | CN(C)C(=O)c1ccc(N2CCN(C(=O)c3ccc4c(c3)OCO4)CC2)cc1 | > 50 µM (inactive)
21 | CCC(=O)N1CC[C@@H]2[C@@H](CO)N(C)c3ccc(-c4ccc(F)cc4)cc3[C@@H]21 | > 50 µM (inactive)
22 | CN1c2ccc(-c3cccc(F)c3)cc2[C@H]2[C@H](CCN2C(=O)CCCCCCC(=O)O)[C@H]1CO | > 50 µM (inactive)
23 | CNC(=O)c1ccc(N2CCN(C(=O)c3ccc4c(c3)OCO4)CC2)cc1 | > 50 µM (inactive)
24 | CC(C)NC(=O)N1CC[C@@H]2[C@@H](CO)N(C)c3ccc(-c4cccc(F)c4)cc3[C@@H]21 | > 50 µM (inactive)
25 | CC(=O)c1ccc(N2CCN(C(=O)c3ccccc3Cl)CC2)cc1 | > 50 µM (inactive)
26 | COc1ccc(NC(=O)N2CC[C@@H]3[C@@H](CO)N(C)c4ccc(-c5ccc(F)cc5)cc4[C@@H]32)cc1 | > 50 µM (inactive)
27 | CN1c2ccc(-c3ccc(F)cc3)cc2[C@H]2[C@H](CCN2C(=O)Cc2cccnc2)[C@H]1CO | > 50 µM (inactive)
28 | CN1c2ccc(-c3cccc(F)c3)cc2[C@H]2[C@H](CCN2C(=O)Nc2ccccc2F)[C@H]1CO | > 50 µM (inactive)
29 | CC(=O)c1ccc(N2CCN(C(=O)c3ccc4c(c3)OCO4)[C@H](C)C2)cc1 | 17.3 µM
30 | CCCCCCCC(=O)N1CC[C@@H]2[C@@H](CO)N(C)c3ccc(-c4cccc(F)c4)cc3[C@@H]21 | > 50 µM (inactive)
31 | CN1c2ccc(-c3ccc(F)cc3)cc2[C@H]2[C@H](CCN2C(=O)Cc2ccccn2)[C@H]1CO | > 50 µM (inactive)
32 | CC(=O)c1ccc(N2CCN(C(=O)c3ccc4c(c3)OCO4)CC2)cc1 | 22.2 µM
33 | COCC(=O)N1CC[C@@H]2[C@@H](CO)N(C)c3ccc(-c4cccc(F)c4)cc3[C@@H]21 | > 50 µM (inactive)
34 | CN1c2ccc(-c3cccc(F)c3)cc2[C@H]2[C@H](CCN2C(=O)c2ccc3c(c2)OCO3)[C@@H]1CO | > 50 µM (inactive)
